The source of these data is ChEMBL document CHEMBL4765390, “Discovery of carboxyl-containing biaryl ureas as potent RORγt inverse agonists” (Eur J Med Chem, 2020).

≈ marks a conversion by molar mass, not a printed value.

Data set [1] concerns the target T1, Nuclear receptor ROR-gamma (Homo sapiens, UniProt P51449).
T1 sequence (P51449 whole entry): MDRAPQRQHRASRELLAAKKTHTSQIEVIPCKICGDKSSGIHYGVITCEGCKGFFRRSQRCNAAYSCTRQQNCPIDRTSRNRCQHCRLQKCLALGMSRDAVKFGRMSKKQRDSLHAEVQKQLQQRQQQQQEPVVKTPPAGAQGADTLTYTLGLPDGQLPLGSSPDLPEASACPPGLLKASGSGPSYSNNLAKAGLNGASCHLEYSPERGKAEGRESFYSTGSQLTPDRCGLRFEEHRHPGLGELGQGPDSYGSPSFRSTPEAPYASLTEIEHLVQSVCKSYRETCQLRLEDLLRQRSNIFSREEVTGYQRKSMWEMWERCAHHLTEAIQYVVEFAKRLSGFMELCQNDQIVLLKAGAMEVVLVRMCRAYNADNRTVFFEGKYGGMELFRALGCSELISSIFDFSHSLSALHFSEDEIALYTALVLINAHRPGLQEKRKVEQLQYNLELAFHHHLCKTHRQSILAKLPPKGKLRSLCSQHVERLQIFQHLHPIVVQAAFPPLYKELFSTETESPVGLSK
Description: Inverse agonist activity at human RORgammat assessed as inhibition of N-terminal biotinylated co-activator SRC1 recruitment measured after 60 mins by FRET assay.

Data set [2] can be described thus: AUC (0 to last) in CD-1 mouse at 5 mg/kg, po administered as single dose measured after 24 hrs by LC-MS/MS analysis. More on the design: route oral, dose 5 mg/kg, time 24 hrs. To be noted: in vivo. It is filed as ADME, organism-based.
A short description of data set [3]: Clearance in CD-1 mouse at 1 mg/kg, iv administered as single dose measured after 24 hrs by LC-MS/MS analysis. It is filed as ADME, organism-based. Conditions: in vivo.
Data set [4] can be described thus: AUC (0 to last) in CD-1 mouse at 1 mg/kg, iv administered as single dose measured after 24 hrs by LC-MS/MS analysis. The format is ADME, organism-based. Also on record: route intravenous, dose 1 mg/kg, time 24 hrs. To be noted: in vivo.
Data set [5] has as its target T2, Nuclear receptor ROR-alpha (Homo sapiens, UniProt P35398).
T2 sequence (P35398 whole entry): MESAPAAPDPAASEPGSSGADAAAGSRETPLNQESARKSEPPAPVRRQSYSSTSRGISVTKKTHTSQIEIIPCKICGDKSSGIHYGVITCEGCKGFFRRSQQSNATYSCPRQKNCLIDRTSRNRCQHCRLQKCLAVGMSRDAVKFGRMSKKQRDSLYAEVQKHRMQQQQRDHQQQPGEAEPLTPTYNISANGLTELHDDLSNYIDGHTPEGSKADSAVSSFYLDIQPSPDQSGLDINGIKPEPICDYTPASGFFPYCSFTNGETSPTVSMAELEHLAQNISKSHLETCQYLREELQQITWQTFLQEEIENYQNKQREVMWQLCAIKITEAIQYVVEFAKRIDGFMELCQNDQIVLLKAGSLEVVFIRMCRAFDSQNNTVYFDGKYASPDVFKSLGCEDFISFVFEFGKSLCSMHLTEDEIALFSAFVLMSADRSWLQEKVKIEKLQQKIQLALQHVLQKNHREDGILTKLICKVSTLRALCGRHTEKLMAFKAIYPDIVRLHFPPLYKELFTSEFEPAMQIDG
Description: Inverse agonist activity at ROR-alpha (unknown origin) expressed in HEK293 cells by Gal4-luciferase reporter assay. It is filed as cell-based. In general terms: A reporter such as luciferase makes a cellular process visible.

Data set [6] can be described thus: Tmax in CD-1 mouse at 5 mg/kg, po administered as single dose measured after 24 hrs by LC-MS/MS analysis. The format is ADME, organism-based. To be noted: in vivo.
The nature of data set [7]: Cmax in CD-1 mouse at 1 mg/kg, iv administered as single dose measured after 24 hrs by LC-MS/MS analysis. The format is ADME, organism-based. More on the design: route intravenous, time 24 hrs, dose 1 mg/kg. To be noted: in vivo.
Data set [8] can be described thus: Half life in CD-1 mouse at 1 mg/kg, iv administered as single dose measured after 24 hrs by LC-MS/MS analysis. It is filed as ADME, organism-based. Conditions: in vivo.
Data set [9] is described as follows: Oral bioavailability in CD-1 mouse at 5 mg/kg administered as single dose measured after 24 hrs by LC-MS/MS analysis. Conditions: in vivo. The format is ADME, organism-based.
Data set [10] can be described thus: Aqueous kinetic solubility of the compound at pH 7.4 PBS buffer at 100 uM incubated for 120 mins by LC-MS/MS analysis. Conditions: read-out: Kinetic_solubility. It is filed as physicochemical.
A short description of data set [11]: Half life in CD-1 mouse at 5 mg/kg, po administered as single dose measured after 24 hrs by LC-MS/MS analysis. The format is ADME, organism-based. Conditions: in vivo.
Data set [12] can be described thus: Volume of distribution at steady state in CD-1 mouse at 1 mg/kg, iv administered as single dose measured after 24 hrs by LC-MS/MS analysis. The format is ADME, organism-based. Conditions: in vivo, read-out: Vdss.
The target of data set [13] is T3, Nuclear receptor ROR-beta (Homo sapiens, UniProt Q92753).
T3 sequence (Q92753 whole entry): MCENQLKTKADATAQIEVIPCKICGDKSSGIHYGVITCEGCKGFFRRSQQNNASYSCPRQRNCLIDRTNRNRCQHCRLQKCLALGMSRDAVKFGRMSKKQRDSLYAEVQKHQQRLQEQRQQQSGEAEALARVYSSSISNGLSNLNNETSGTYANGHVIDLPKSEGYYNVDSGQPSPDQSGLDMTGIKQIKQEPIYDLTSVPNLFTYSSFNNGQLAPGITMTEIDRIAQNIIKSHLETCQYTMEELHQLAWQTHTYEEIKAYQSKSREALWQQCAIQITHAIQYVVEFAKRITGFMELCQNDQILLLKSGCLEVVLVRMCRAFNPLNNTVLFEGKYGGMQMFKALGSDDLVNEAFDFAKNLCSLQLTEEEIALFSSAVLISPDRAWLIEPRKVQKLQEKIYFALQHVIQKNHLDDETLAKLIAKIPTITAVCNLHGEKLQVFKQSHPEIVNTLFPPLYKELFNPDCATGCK
In words: Inverse agonist activity at ROR-beta (unknown origin) expressed in HEK293 cells by Gal4-luciferase reporter assay. It is filed as cell-based.

Data set [14] in a line: Cmax in CD-1 mouse at 5 mg/kg, po administered as single dose measured after 24 hrs by LC-MS/MS analysis. It is filed as ADME, organism-based. Also on record: route oral, time 24 hrs, dose 5 mg/kg. To be noted: in vivo.

As to `CC(C(=O)O)c1ccc(CNC(=O)Nc2cc(Cl)c(-c3ccccc3OC(F)(F)F)c(C#N)c2)cc1` (configuration not stated), in [1], the IC50 (usually the midpoint of a concentration-inhibition curve) is 334 nM.
As to `CS(=O)(=O)c1ccc(CNC(=O)Nc2cc(Cl)c(-c3ccccc3OC(F)(F)F)c(Cl)c2)cc1`, in [1], the IC50 is 69 nM.
On the same count and under the same terms, then `CCS(=O)(=O)c1ccc(COCc2cc(Cl)c(-c3ccccc3OC(F)(F)F)c(Cl)c2)cc1`, with 4410 nM.
Still for that read-out and setting: the result for `CNS(=O)(=O)c1ccc(CNC(=O)Nc2cc(Cl)c(-c3ccccc3OC(F)(F)F)c(Cl)c2)cc1` reads 99.8 nM.
Consider `O=C(O)Cc1ccc(CNC(=O)Nc2cc(Cl)c(-c3ccccc3OC(F)(F)F)c(Cl)c2)cc1`, for which the AUC(0-t) (as a rule, the area under the concentration-time curve up to a stated or last time point) at 24 h is 2410 ng·h/mL in data set [2] and 1270 ng·h/mL in data set [4]. Also, the clearance (in general, a measure of how efficiently the substance is removed, as volume per time) in data set [3] was 13.1 mL/min/kg. In addition, the IC50 in [5] and in data set [13] was > 10000 nM each time. Moreover, the time of peak concentration (Tmax) (in general, the time at which the peak concentration occurs) in data set [6] is 1 h. In addition, the Cmax (in general, the highest concentration seen after dosing) in data set [7] was determined as 1550 ng/mL; in [14], 609 ng/mL. Besides, the half-life – broadly, how long it takes for the measured level to halve – in data set [8] is 3.04 h; in [11], 3.63 h. In addition, in data set [9], the bioavailability (commonly the share of a dose that reaches the circulation, judged against a reference dose that is usually intravenous) was 38.1%. Besides, the solubility kinetic at 2 h, 100 µM in data set [10] stood at 84 µg/mL (≈ 164 µM). In addition, the Vd in data set [12] was determined as 1.78 L/kg.
Take `CCS(=N)(=O)c1ccc(CNC(=O)Nc2cc(Cl)c(-c3ccccc3OC(F)(F)F)c(Cl)c2)cc1` (configuration not stated): the IC50 in [1] stood at 200 nM.
On to `Cc1cc(CNC(=O)Nc2cc(Cl)c(-c3ccccc3OC(F)(F)F)c(Cl)c2)ccc1CC(=O)O`, for which the IC50 in data set [1] came out at 995 nM.
Regarding `O=C(O)Cc1ccc(CNC(=O)Nc2cc(F)c(-c3ccccc3OC(F)(F)F)c(F)c2)nc1`, the 50% inhibitory concentration (IC50) in data set [1] was 996 nM.
On the same count and under the same terms, then `O=C(NCc1ccc(C(F)C(=O)O)cc1)Nc1cc(Cl)c(-c2ccccc2OC(F)(F)F)c(Cl)c1` (configuration not stated), with 124 nM.
The same measure, in the same setting: the result for `O=C(O)CCc1ccc(CNC(=O)Nc2cc(Cl)c(-c3ccccc3OC(F)(F)F)c(Cl)c2)cc1` reads 841 nM; that for `O=C(NCc1ccc(C(=O)O)cc1)Nc1cc(Cl)c(-c2ccccc2OC(F)(F)F)c(Cl)c1`, 1100 nM; that for `CC(C(=O)O)c1ccc(CNC(=O)Nc2cc(Cl)c(-c3ccccc3OC(F)(F)F)c(Cl)c2)cc1` (configuration not stated), 541 nM.
On the same count and under the same terms, then `CC(=O)NS(=O)(=O)c1ccc(CNC(=O)Nc2cc(Cl)c(-c3ccccc3OC(F)(F)F)c(Cl)c2)cc1`, with 138 nM.
In the case of `O=C(O)Cc1ccc(CNC(=O)Nc2ccc(-c3ccccc3)cc2)cc1`, the concentration for half-maximal inhibition (IC50) in [1] was > 30000 nM.
As to `NS(=O)(=O)c1ccc(CNC(=O)Nc2cc(Cl)c(-c3ccccc3OC(F)(F)F)c(Cl)c2)cc1`, in data set [1], the IC50 was 276 nM.
Same read-out and setting: then `O=C(NCc1ccc(C(O)C(=O)O)cc1)Nc1cc(Cl)c(-c2ccccc2OC(F)(F)F)c(Cl)c1` (configuration not stated), with 278 nM.
As for `CCS(=O)(=O)c1ccc(CC(=O)Nc2cc(Cl)c(-c3ccccc3OC(F)(F)F)c(Cl)c2)cc1`, the solubility kinetic at 2 h, 100 µM in [10] was 1.25 µg/mL (≈ 2.35 µM).
In the case of `Cc1cc(CC(=O)O)ccc1CNC(=O)Nc1cc(Cl)c(-c2ccccc2OC(F)(F)F)c(Cl)c1`, the IC50 in data set [1] was determined as 398 nM.
Same read-out and setting: the result for `O=C(NCc1ccc(C(O)CO)cc1)Nc1cc(Cl)c(-c2ccccc2OC(F)(F)F)c(Cl)c1` (configuration not stated) reads 584 nM; that for `Cc1cc(NC(=O)NCc2ccc(CC(=O)O)cn2)cc(C)c1-c1ccccc1OC(F)F`, 345 nM.
As for `CCS(=O)(=O)c1ccc(CCOc2cc(Cl)c(-c3ccccc3OC(F)(F)F)c(Cl)c2)cc1`, in data set [1], the IC50 was 426 nM.
Same read-out and setting: then `CCS(=O)(=O)c1ccc(CNC(=O)c2cc(Cl)c(-c3ccccc3OC(F)(F)F)c(Cl)c2)cc1`, with 112 nM.
Same read-out and setting: then `CC(C(=O)O)c1ccc(CNC(=O)Nc2cc(Cl)c(-c3ccccc3OC(F)(F)F)c(Cl)c2)nc1` (configuration not stated), with 1780 nM.
On the same count and under the same terms, then `CCS(=O)(=O)c1ccc(CCNc2cc(Cl)c(-c3ccccc3OC(F)(F)F)c(Cl)c2)cc1`, with 21.6 nM; and `CCS(=O)(=O)c1ccc(OCC(=O)Nc2cc(Cl)c(-c3ccccc3OC(F)(F)F)c(Cl)c2)cc1`, with 99 nM.
